Reference: the supplement of paper PMC11061612

What was measured:
Test in all cases: Bliss excess, mean over the matrix (fraction); higher = more synergy
[1] = tested on: EN (Endometrial Carcinoma)
Outline: (§1)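 After 24 hours at 37°C and 5% CO2 in 1536-well plates, cells in DMEM/F12 or RPMI plus 10% FBS received two-drug dose matrices for 72 hours. Viability came from CellTiter-Glo 2.0 luminescence and was scaled as inhibition, anchored at 0 by vehicle wells and at 1 by blank wells. Combination Emax is taken as the second-highest inhibition in the matrix, and Bliss excess as the observed combination effect less EA + EB − EA·EB, with EA and EB the single-agent effects.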

NCI-H2795 (Mesothelioma) = tested on: NCI-H2795 (Mesothelioma)
Outline: as §1

[2] = tested on: NCI-H69 (Small Cell Lung Carcinoma)
Outline: as §1

[3] = tested on: SW626 (Colorectal Carcinoma)
Outline: as §1

[4] = tested on: 8305C (Thyroid Gland Carcinoma)
Outline: as §1

[5] = tested on: SK-OV-3 (Ovarian Carcinoma)
Outline: as §1

[6] = tested on: LB771-HNC (Head and Neck Carcinoma)
Outline: as §1

[7] = tested on: NCI-H747 (Colorectal Carcinoma)
Outline: as §1

[8] = tested on: KYSE-410 (Esophageal Squamous Cell Carcinoma)
Outline: as §1

[9] = tested on: CAL-51 (Breast Carcinoma)
Outline: as §1

[10] = tested on: CAL-54 (Kidney Carcinoma)
Outline: as §1

[11] = tested on: RPMI-6666 (Non-Cancerous)
Outline: as §1

COLO-829 (Melanoma) = tested on: COLO-829 (Melanoma)
Outline: as §1

[12] = tested on: SW1271 (Small Cell Lung Carcinoma)
Outline: as §1

SH-4 (Melanoma) = tested on: SH-4 (Melanoma)
Outline: as §1

[13] = tested on: PCI-30 (Head and Neck Carcinoma)
Outline: as §1

[14] = tested on: KARPAS-231 (B-Cell Non-Hodgkin's Lymphoma)
Outline: as §1

[15] = tested on: CAPAN-1 (Pancreatic Carcinoma)
Outline: as §1

[16] = tested on: MDA-MB-468 (Breast Carcinoma)
Outline: as §1

For C=CCn1c(=O)c2cnc(Nc3ccc(N4CCN(C)CC4)cc3)nc2n1-c1cccc(C(C)(C)O)n1 [AZD1775] + C1CN(CCC1(C(=O)N[C@@H](CCO)C2=CC=C(C=C2)Cl)N)C3=NC=NC4=C3C=CN4 [Capivasertib] (first compound max 3 µM, partner max 3 µM), the Bliss excess [1] was -0.0623, the Bliss excess (NCI-H2795 (Mesothelioma)) was -0.0042 and the Bliss excess [2] was -0.0601. For the same molecule, the Bliss excess [3] was -0.0606, the Bliss excess [4] was 0.0069 and the Bliss excess [5] was -0.0692. The Bliss excess [6] was -0.0581, the Bliss excess [7] was -0.0485 and the Bliss excess [8] was -0.0015. For the same molecule, the Bliss excess [9] was -0.0188, the Bliss excess [10] was -0.0622 and the Bliss excess [11] was -0.0148. It also gave a Bliss excess (COLO-829 (Melanoma)) of 0.0335, a Bliss excess [12] of -0.0161 and a Bliss excess (SH-4 (Melanoma)) of -0.0713. It also gave a Bliss excess [13] of -0.0677 and a Bliss excess [14] of 0.0311.

COc1nnc2ccc(N3CCC(c4ccc(OCCN5CCN(C)C(=O)[C@H]5C)cc4)CC3)nn12 [AZD5153] + Cn1cnc2c(F)c(Nc3ccc(Br)cc3Cl)c(C(=O)NOCCO)cc21 [Selumetinib] (first compound max 1 µM, 7x7, partner max 10 µM) gave a Bliss excess [1] of 0.023, a Bliss excess (NCI-H2795 (Mesothelioma)) of -0.03 and a Bliss excess [15] of -0.0226. For the same molecule, the Bliss excess [2] was -0.0503, the Bliss excess [3] was -0.005 and the Bliss excess [4] was -0.0323. The Bliss excess [5] was -0.0545, the Bliss excess [6] was -0.0895 and the Bliss excess [7] was -0.0727. It also gave a Bliss excess [8] of -0.0784, a Bliss excess [9] of 0.0099 and a Bliss excess [10] of -0.0165. It also gave a Bliss excess [11] of -0.0462, a Bliss excess (COLO-829 (Melanoma)) of -0.0086 and a Bliss excess [12] of -0.0034. For the same molecule, the Bliss excess (SH-4 (Melanoma)) was 0.0222, the Bliss excess [13] was -0.0426 and the Bliss excess [14] was -0.0464.

COc1nnc2ccc(N3CCC(c4ccc(OCCN5CCN(C)C(=O)[C@H]5C)cc4)CC3)nn12 [AZD5153] + CC1(C)CCC(CN2CCN(c3ccc(C(=O)NS(=O)(=O)c4ccc(NCC5CCOCC5)c([N+](=O)[O-])c4)c(Oc4cnc5[nH]ccc5c4)c3)CC2)=C(c2ccc(Cl)cc2)C1 [Venetoclax] (first compound max 1 µM, 7x7, partner max 1 µM) gave a Bliss excess [1] of -0.0567, a Bliss excess (NCI-H2795 (Mesothelioma)) of -0.041 and a Bliss excess [15] of -0.0874. The Bliss excess [2] was -0.0445, the Bliss excess [3] was -0.0676 and the Bliss excess [4] was -0.0901. The Bliss excess [5] was -0.0371, the Bliss excess [6] was -0.0704 and the Bliss excess [7] was -0.0522. It also gave a Bliss excess [8] of -0.0898, a Bliss excess [9] of -0.0513 and a Bliss excess [10] of -0.0374. The Bliss excess [11] was -0.0153, the Bliss excess (COLO-829 (Melanoma)) was -0.0356 and the Bliss excess [12] was -0.108. It also gave a Bliss excess (SH-4 (Melanoma)) of -0.124, a Bliss excess [13] of -0.0894 and a Bliss excess [14] of -0.135.

For C[C@@H](c1ccc2nccn2c1)n1nnc2ncc(-c3cnn(C)c3)nc21 [Savolitinib] + CC1(C)CCC(CN2CCN(c3ccc(C(=O)NS(=O)(=O)c4ccc(NCC5CCOCC5)c([N+](=O)[O-])c4)c(Oc4cnc5[nH]ccc5c4)c3)CC2)=C(c2ccc(Cl)cc2)C1 [Venetoclax] (first compound max 1 µM, 7x7, partner max 1 µM), the Bliss excess [1] was -0.0643, the Bliss excess (NCI-H2795 (Mesothelioma)) was 0.0032 and the Bliss excess [15] was -0.0613. The Bliss excess [2] was -0.0144, the Bliss excess [3] was -0.066 and the Bliss excess [4] was -0.115. It also gave a Bliss excess [5] of -0.0511, a Bliss excess [6] of -0.0912 and a Bliss excess [7] of -0.0817. For the same molecule, the Bliss excess [8] was -0.0726, the Bliss excess [9] was -0.0522 and the Bliss excess [10] was -0.102. It also gave a Bliss excess [11] of -0.0557, a Bliss excess (COLO-829 (Melanoma)) of -0.0411 and a Bliss excess [12] of -0.0436. It also gave a Bliss excess (SH-4 (Melanoma)) of -0.0535, a Bliss excess [13] of -0.0899 and a Bliss excess [14] of -0.0344.

Cn1cnc2c(F)c(Nc3ccc(Br)cc3Cl)c(C(=O)NOCCO)cc21 [Selumetinib] + CCN(CCO)CCCOc1ccc2c(Nc3cc(CC(=O)Nc4cccc(F)c4)[nH]n3)ncnc2c1 [AZD2811] (first compound max 10 µM, 7x7, partner max 1 µM) gave a Bliss excess [1] of -0.0862, a Bliss excess (NCI-H2795 (Mesothelioma)) of -0.0238 and a Bliss excess [15] of -0.0209. For the same molecule, the Bliss excess [2] was -0.056, the Bliss excess [3] was 0.025 and the Bliss excess [4] was -0.0075. The Bliss excess [5] was -0.0798, the Bliss excess [6] was -0.0486 and the Bliss excess [7] was -0.0428. For the same molecule, the Bliss excess [8] was 0.0033, the Bliss excess [9] was 0.0356 and the Bliss excess [10] was -0.0129. For the same molecule, the Bliss excess [11] was 0.0696, the Bliss excess (COLO-829 (Melanoma)) was -0.0341 and the Bliss excess [12] was -0.0324. It also gave a Bliss excess (SH-4 (Melanoma)) of -0.0324, a Bliss excess [13] of -0.0396 and a Bliss excess [14] of -0.0043.

With COc1nnc2ccc(N3CCC(c4ccc(OCCN5CCN(C)C(=O)[C@H]5C)cc4)CC3)nn12 [AZD5153] + CCN(CCO)CCCOc1ccc2c(Nc3cc(CC(=O)Nc4cccc(F)c4)[nH]n3)ncnc2c1 [AZD2811] (first compound max 1 µM, 7x7, partner max 1 µM) the Bliss excess [1] was -0.0918, the Bliss excess (NCI-H2795 (Mesothelioma)) was -0.0807 and the Bliss excess [15] was -0.08. It also gave a Bliss excess [2] of 0.0048, a Bliss excess [3] of -0.0348 and a Bliss excess [4] of -0.0629. It also gave a Bliss excess [5] of -0.0703, a Bliss excess [6] of -0.0006 and a Bliss excess [7] of -0.0623. The Bliss excess [8] was -0.0182, the Bliss excess [9] was -0.0038 and the Bliss excess [10] was -0.0225. The Bliss excess [11] was -0.0656, the Bliss excess (COLO-829 (Melanoma)) was -0.0173 and the Bliss excess [12] was -0.0234. For the same molecule, the Bliss excess (SH-4 (Melanoma)) was -0.0194, the Bliss excess [13] was -0.0568 and the Bliss excess [14] was -0.203.

Cc1nc(-c2cn3c(n2)-c2ccc(-c4cnn(C(C)(C)C(N)=O)c4)cc2OCC3)n(C(C)C)n1 [Taselisib] + O=C(Nc1ccc2[nH]nc(-c3ccncc3)c2c1)[C@@H]1CCN(CC(=O)N2CCN(c3ccc(-c4ncccn4)cc3)CC2)C1 [SCH772984] (first compound max 10 µM, 7x7, partner max 5 µM) was tested, and the Bliss excess [1] was -0.034, the Bliss excess (NCI-H2795 (Mesothelioma)) was 0.0704 and the Bliss excess [15] was 0.0449. The Bliss excess [2] was 0.0251, the Bliss excess [4] was 0.0199 and the Bliss excess [5] was 0.0609. It also gave a Bliss excess [16] of -0.003, a Bliss excess [10] of -0.0024 and a Bliss excess [11] of -0.001. The Bliss excess [12] was -0.0096, the Bliss excess (SH-4 (Melanoma)) was 0.0374 and the Bliss excess [13] was 0.023.

For COc1nnc2ccc(N3CCC(c4ccc(OCCN5CCN(C)C(=O)[C@H]5C)cc4)CC3)nn12 [AZD5153] + C=CCn1c(=O)c2cnc(Nc3ccc(N4CCN(C)CC4)cc3)nc2n1-c1cccc(C(C)(C)O)n1 [AZD1775] (first compound max 1 µM, partner max 1 µM), the Bliss excess [1] was -0.0753, the Bliss excess (NCI-H2795 (Mesothelioma)) was -0.0308 and the Bliss excess [15] was -0.0397. The Bliss excess [2] was -0.0303, the Bliss excess [3] was 0.0045 and the Bliss excess [4] was -0.077. The Bliss excess [5] was -0.0428, the Bliss excess [6] was -0.0069 and the Bliss excess [7] was -0.0633. It also gave a Bliss excess [8] of -0.0516, a Bliss excess [9] of -0.0111 and a Bliss excess [10] of -0.0366. The Bliss excess [11] was -0.0821, the Bliss excess (COLO-829 (Melanoma)) was -0.0178 and the Bliss excess [12] was -0.0763. The Bliss excess (SH-4 (Melanoma)) was -0.106, the Bliss excess [13] was -0.0307 and the Bliss excess [14] was -0.112.
